Reference: patent publication US20080200393A1, “Method and Composition For Treating Angiogenesis and For Preventing Cancer Progression and Metastasis Comprising a Prostate Secretory Protein (Psp94) Family Member” (Ambrillia Biopharma Inc., priority 2004, published 2008)
Several values for one entry are separate records, joined by “and”; a condition that tells them apart may be missing. Equal entries are not always repeated. Where no end group is shown, it is not given here.

How the values were obtained:
[1] = test system: total MMP-9 (human active and pro-MMP-9); experiment: Total MMP-9 ELISA on plasma of patients, Phase IIa clinical trial; format: in vivo; conditions: for MMP-9 level in plasma, D27C3: day 27 of cycle 3
Source text: The clinical trial is a multiple ascending dose, open-label, Phase IIa study evaluating the safety and tolerability of PCK3145 derivative; SEQ ID NO.:7 administered intravenously in patients with metastatic hormone resistant prostatic cancer (HRPC). The study is not randomized. Patients have been enrolled sequentially and chronologically.
The drug was therefore administered to patients characterized as having metastatic adenocarcinoma of the prostate, stage IV prostatic cancer and as having a metastatic hormone resistant prostatic cancer. Four patients per cohort and 4 ascending doses were evaluated. The ascending doses were 5, 20, 40 and 80 mg/m^2. The dose escalation decision has been based on dose-limiting toxicity (DLT).
The 33-day cycle of treatment consisted of a PCK3145 derivative; SEQ ID NO.:7 administration three times per week (day 1, 3 and 5) for 26 days, followed by a 7 day post-treatment observation period. The maximum tolerated dose (MTD) is the dose level below the one inducing grade 3 or 4 drug related toxicity (DLT) in two patients from a cohort of a minimum of 4 patients. Only DLT's observed during the first cycle have been used for the dose escalation decision.
The treatment period consisted of intravenous administration of the PCK3145 derivative (SEQ ID NO.:5 derivative) i.e., SEQ ID NO.:7, three times per week (day 1, 3 and 5) for 26 consecutive days during which patients were closely monitored and undergone regular examination. After a week of treatment break and in the absence of toxicity and disease progression, patients optionally received additional treatment cycles.
Biological samples were drawn during different time points of the study for the purpose of safety monitoring and have been assayed for MMP-9 levels. Plasma samples were placed on dry ice and stored frozen (approximately −70° C.) and subsequently analyzed for total MMP-9 levels.
MMP-9 assay methodology. An Elisa assay measuring total MMP-9, i.e., human active and pro-MMP-9, (Quantikine®), Cat. No.: DMP900, R&D Systems Inc.) was performed on plasma-heparin samples. Plasma samples have been collected from individuals at day 1 (before treatment) and at day 27 of each treatment cycle.
The Quantikine® MMP-9 immunoassay is a solid phase ELISA designed to measure total MMP-9 (92 kDa pro- and 82 kDa active forms) in serum, plasma, saliva, urine and cell culture supernatants. It is calibrated with CHO-cells expressed recombinant human pro-MMP-9 and the antibodies were raised against the recombinant factor. Both antibodies also recognize recombinant human active MMP-9.
The assay employs the quantitative sandwich enzyme immunoassay technique. A monoclonal antibody specific for MMP-9 has been pre-coated onto a microplate. Standards and samples are added into the wells, and MMP-9 is thus bound by the immobilized antibody. After washing away unbound substances, an enzyme-linked polyclonal antibody specific for MMP-9 is added to the wells. Following a wash to remove unbound antibody-enzyme reagent, a substrate solution is added to the wells and color develops in proportion to the amount of total MMP-9 (pro and/or active) bound in the initial step. The color development is stopped and the intensity of the color is measured.

proMMP-2 = experiment: Gelatin zymography of HUVEC conditioned media; format: cell-based, Human
Experimental: Zymography. Zymography is a technique generally used to analyze the activity of matrix metalloproteinases (MMPs) in biological samples. It involves the electrophoretic separation of proteins under denaturing (Sodium Dodecyl Sulfate (SDS)) but non-reducing conditions through a polyacrylamide gel containing gelatin (for example, 10% gel containing 1 mg/ml gelatin for MMP-9 and MMP-2 assays). The resolved proteins are re-natured by exchanging SDS with a non-ionic detergent such as Triton X-100 and the gel is incubated in an incubation buffer for activation of MMP-2 and MMP-9 (for example at 37° C. for 18 hrs). The gel is stained with Coomassie blue and the MMP-2 and MMP-9 bands may be visualized as clear bands against a blue background (i.e., the MMPs degrade the gelatin and are visualized as clear bands; pro MMP-2 is 68 kDa and pro-MMP-9 is 92 kDa). These bands can be quantified using densitometry. For example, prior to stimulation, quiescent HUVEC were serum-starved for 16 h in the presence or absence of PCK3145 or PD98059 and then stimulated with VEGF. The conditioned media were collected 24 h after stimulation, and clarified by centrifugation. Identical volume of conditioned media were mixed with non reducing Laemmli sample buffer and subjected to 7.5% SDS-polyacrylamide gels containing 1 mg/ml gelatin (Sigma). The gels were then incubated for 30 min at room temperature twice in 2.5% (v/v) Triton X-100 and rinsed five times in doubly distilled water. The gels were incubated at 37° C. for a further 18 h in 200 mM NaCl/5 mM CaCl2/0.02% (v/v) Brij-35/50 mM Tris/HCl buffer (pH 7.6), then stained with 0.1% Coomassie Brilliant Blue R-250, followed by destaining in 10% (v/v) acetic acid/30% (v/v) methanol in water. Gelatinolytic activity was detected as unstained bands on a blue background.
The effect of the PCK3145 derivative (SEQ ID NO.:7) on MMP extracellular levels was thus assessed by gelatin-zymography in the conditioned media of serum-starved HUVEC. After 16 hours of starvation, HUVEC were stimulated with VEGF in the presence or not of the PCK3145 derivative. […]

glioma cells (U-87) = experiment: SEAP gene-reporter assay (Mercury Profiling Kit); format: cell-based
Experimental: In order to investigate the potential intracellular pathways triggered by the PCK3145 derivative, a gene-reporter assay using the SEAP (Secreted Alkaline Phosphatase) Mercury Profiling Kit (CLONTECH) was performed in glioma cells (U-87). This assay enables the monitoring of transcription factors that are triggered by a particular experimental condition by assaying the alkaline phosphatase activity in the extracellular media.

EWQTDNCETCTCYET (cysteine pairing not given here) [PCK3145 derivative, PCK3145 derivative with acetylaminomethyl groups on the three cysteines]
change in MMP-9 levels compared to baseline ([1]; elevated MMP-9 category (patients A, B, C, D), after one cycle): significant decrease
MMP-9 level in plasma, D27C2 ([1]; elevated baseline MMP-9 patients, day 27 of cycle 2): 55.6 µg/L and 37.7 µg/L
MMP-9 level in plasma, D27C3 ([1]; elevated baseline MMP-9 patients): 54.5 µg/L
MMP-9 level in plasma, D27C4 ([1]; elevated baseline MMP-9 patients, day 27 of cycle 4): 39.4 µg/L
MMP-9 level in plasma, D27C3 ([1]; normal baseline MMP-9 patients): 101.8 µg/L
change in MMP-9 levels compared to baseline ([1]; normal value MMP-9 category (patients E, F, G, H, I), after one cycle): no significant decrease
decrease in MMP-9 levels compared to baseline ([1]; patient A, after cycle 1): up to 89%
decrease in MMP-9 levels compared to baseline ([1]; patient B, after cycle 1): 41%
reduction of baseline level of MMP-9 ([1]; patient B, treatment cycle 2): 64%
reduction of baseline level of MMP-9 ([1]; patient B, treatment cycle 3): 65%
reduction of baseline level of MMP-9 ([1]; patient B, treatment cycle 4): 75%
decrease in MMP-9 levels compared to baseline ([1]; patient C, cycle 1): 90%
reduction in MMP-9 levels ([1]; patient C, cycle 2): 76%
decrease in MMP-9 levels compared to baseline ([1]; patient D, cycle 1): 34%
change in MMP-9 levels compared to baseline ([1]; patient E, after 3 cycles): no MMP-9 decrease
change in MMP-9 levels compared to baseline ([1]; patients E and G, after 2 cycles): no decrease
inhibition of VEGF-induced proMMP-2 secretion (proMMP-2; HUVEC, 300 μg/ml): approximately 50%
downregulation of basal proMMP-2 levels in the extracellular media (proMMP-2; serum-starved HUVEC, 24 hours treatment): approximately 35%
MAPK/JNK pathway (SRE), SEAP reporter (glioma cells (U-87)): triggers significantly
NFkB pathway, SEAP reporter (glioma cells (U-87)): triggers significantly
secretion of the constitutively expressed SEAP (glioma cells (U-87)): inhibited
